Where a name gives a salt, the structure may show the parent alone.
Biological target: T1, Lp-PLA2 from plasma (pooled human plasma) (Homo sapiens, UniProt Q13093)
T1 construct: 8 μL pooled human plasma; from tissue; host or cells: pooled human plasma
T1 sequence (Q13093 22-441): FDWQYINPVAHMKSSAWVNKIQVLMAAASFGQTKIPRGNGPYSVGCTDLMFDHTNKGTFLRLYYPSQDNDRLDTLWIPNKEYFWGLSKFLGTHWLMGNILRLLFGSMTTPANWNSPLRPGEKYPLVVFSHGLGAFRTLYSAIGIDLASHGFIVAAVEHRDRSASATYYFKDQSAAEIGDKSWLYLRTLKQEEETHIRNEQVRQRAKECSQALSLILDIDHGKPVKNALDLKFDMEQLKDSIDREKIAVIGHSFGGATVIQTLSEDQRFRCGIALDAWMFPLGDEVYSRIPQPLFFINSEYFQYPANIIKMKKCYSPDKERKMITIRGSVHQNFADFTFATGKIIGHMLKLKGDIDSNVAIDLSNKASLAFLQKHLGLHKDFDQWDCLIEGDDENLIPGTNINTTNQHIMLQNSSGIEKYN
Test: Lp-PLA2 human plasma assay (Thio-PAF assay)
Type: biochemical
Conditions: text thresholds, read-out: pIC50 values in the thio-PAF assay (converted)
Description: (3) Lipoprotein-Associated Phospholipase A2 (Lp-PLA2) Human Plasma Assay (Also Referred to as “Thio-PAF Assay”)
The human plasma assay utilizes a thioester analog of PAF (phosphatidylcholine), where hydrolysis yields to the formation of a phospholipid containing a free thiol group. The amount of thiol is quantitated continuously by reacting with CPM (7-diethylamino-3-(4′-maleimidylphenyl)-4-methylcoumarin), a maleimide which increases in fluoresence after Michael addition of thiols. This assay may detect the activity of Lp-PLA2 from plasma, as determined by specific inhibition by Lp-PLA2 inhibitors.
The thio-PAF assay was run as a quenched 15 μL assay. Compounds source plate was prepared by making 1:3 (by volume) serial dilution of the compounds into pure DMSO on 384-well microplate. 0.01 μL of compounds on compound source plate were transferred to 384 well Greiner 784076 (black) low-volume plates by ECHO liquid dispenser. 8 μL pooled human plasma, which was previously aliquoted and frozen, was added. Plates were centrifuged for 10 sec at 500 rpm. After 30 minutes preincubation, 2 μL of substrate (2.5 mM thio-PAF, 3.2 mM NEM (N-ethylmaleimide) [made fresh daily in DMSO], and 32 μM CPM [from a DMSO stock] in assay buffer of 50 mM HEPES, pH7.4, 150 mM NaCl, 1 mM CHAPS was added to 384 well Greiner 784076 (black) low-volume plates by BRAVO liquid handling station. Plates were centrifuged for 10 sec at 500 rpm. Plate was covered to protect from light and incubated for 2 min at room temperature. Reaction was quenched with 5 μL of 5% aqueous trifluoroacetic acid (TFA). Plates were covered to protect from light and incubated for 40 min at room temperature. Plates were read at ex: 380/em: 485 using-Envision microplate reader. PIC50 data, curve and QC analysis was conducted by using XLFit module in Excel.

Row | IC50 [nM] | SMILES
1 | ≤ 1000 | COc1ncc(Cc2cn(C)c(CCc3ccc(Oc4ccc(Cl)c(C(F)(F)F)c4)cc3)nc2=O)cn1 [E3, 2-[2-(4-{[4-Chloro-3-(trifluoromethyl)phenyl]oxy}phenyl)ethyl]-1-methyl-5-{[2-(methyloxy)-5-pyrimidinyl]methyl}-4(1H)-pyrimidinone]
2 | ≤ 1000 | Cn1cc(Cc2cncnc2)c(=O)nc1CCc1ccc(Oc2ccc(Cl)c(C(F)(F)F)c2)cc1 [E4, 2-[2-(4-{[4-Chloro-3-(trifluoromethyl)phenyl]oxy}phenyl)ethyl]-1-methyl-5-(5-pyrimidinylmethyl)-4(1H)-pyrimidinone]
3 | ≤ 100 | COc1ncc(Cc2c[nH]c(NCCc3ccc(Oc4ccc(Cl)c(C(F)(F)F)c4)cc3)nc2=O)cn1 [E9, 2-{[2-(4-{[4-Chloro-3-(trifluoromethyl)phenyl]oxy}phenyl)ethyl]amino}-5-{[2-(methyloxy)-5-pyrimidinyl]methyl}-4(1H)-pyrimidinone]
4 | ≤ 100 | N#Cc1cc(CSc2nc(=O)c(Cc3cncnc3)c[nH]2)ccc1Oc1ccc(C(F)(F)F)cn1 [E73, 5-({[4-oxo-5-(5-pyrimidinylmethyl)-1,4-dihydro-2-pyrimidinyl]thiol}methyl)-2-{[5-(trifluoromethyl)-2-pyridinyl]oxy}benzonitrile]
5 | ≤ 100 | Cn1cc(Cc2cncnc2)c(=O)nc1SCc1ccc(Oc2ccc(Cl)c(C(F)(F)F)c2)c(C#N)c1 [E79, 2-{[4-chloro-3-(trifluoromethyl)phenyl]oxy}-5-({[1-methyl-4-oxo-5-(5-pyrimidinylmethyl)-1,4-dihydro-2-pyrimidinyl]thio}methyl)benzonitrile]
6 | ≤ 100 | Cn1cc(Cc2cncnc2)c(=O)nc1SCc1ccc(Oc2ccc(F)c(C(F)(F)F)c2)c(C#N)c1 [E88, 2-{[4-fluoro-3-(trifluoromethyl)phenyl]oxy}-5-({[1-methyl-4-oxo-5-(5-pyrimidinylmethyl)-1,4-dihydro-2-pyrimidinyl]thio}methyl)benzonitrile]
7 | ≤ 100 | Cn1cc(Cc2cn(C)c(SCCc3ccc(Oc4cccc(C(F)(F)F)c4)c(C#N)c3)nc2=O)cn1 [E92, 5-[2-({1-methyl-5-[(1-methyl-1H-pyrazol-4-yl)methyl]-4-oxo-1,4-dihydro-2-pyrimidinyl}thio)ethyl]-2-{[3-(trifluoromethyl)phenyl]oxy}benzonitrile, trifluoroacetic acid salt]
8 | ≤ 100 | Cn1cc(Cc2cncnc2)c(=O)nc1SCc1ccc(Oc2ccc(C(F)(F)F)cn2)c(C#N)c1 [E105, 5-({[1-methyl-4-oxo-5-(5-pyrimidinylmethyl)-1,4-dihydro-2-pyrimidinyl]thio}methyl)-2-{[5-(trifluoromethyl)-2-pyridinyl]oxy}benzonitrile]
9 | ≤ 100 | Cn1cc(Cc2cn(C)c(SCCc3ccc(Oc4ccc(Cl)c(C(F)(F)F)c4)cc3)nc2=O)cn1 [E113, 2-{[2-(4-{[4-chloro-3-(trifluoromethyl)phenyl]oxy}phenyl)ethyl]thio}-1-methyl-5-[(1-methyl-1H-pyrazol-4-yl)methyl]-4(1H)-pyrimidinone]
10 | ≤ 1000 | O=c1nc(OCCc2ccc(Oc3ccc(Cl)c(C(F)(F)F)c3)cc2)[nH]cc1Cc1cnc(C(F)(F)F)nc1 [E126, 2-{[2-(4-{[4-chloro-3-(trifluoromethyl)phenyl]oxy}phenyl)ethyl]oxy}-5-{[2-(trifluoromethyl)-5-pyrimidinyl]methyl}-4(1H)-pyrimidinone]
11 | ≤ 1000 | COc1ncc(Cc2c[nH]c(OCCc3ccc(Oc4ccc(C)c(F)c4)cc3)nc2=O)cn1 [E157, 2-[(2-{4-[(3-fluoro-4-methylphenyl)oxy]phenyl}ethyl)oxy]-5-{[2-(methyloxy)-5-pyrimidinyl]methyl}-4(1H)-pyrimidinone]
12 | ≤ 100 | COc1ncc(Cc2c[nH]c(OCCc3ccc(Oc4cc(Cl)cc(C(F)(F)F)c4)cc3)nc2=O)cn1 [E165, 2-{[2-(4-{[3-chloro-5-(trifluoromethyl)phenyl]oxy}phenyl)ethyl]oxy}-5-{[2-(methyloxy)-5-pyrimidinyl]methyl}-4(1H)-pyrimidinone]
